{
  "source": "patent US8916527B2",
  "about": "“Antibiotic macrocycle compounds and methods of manufacture and use thereof” (Optimer Pharmaceuticals, Inc., priority 2007, dated 2014)",
  "key": {"[1]": {"test_system": "Bifidiobacterium longum, ATCC 15707", "experiment": "MIC, agar dilution method", "type": "cell-based", "conditions": "Table 1 gram positive GI flora"}, "[2]": {"test_system": "Clostridium difficile, ATCC 43255", "experiment": "MIC, agar dilution method", "type": "cell-based", "conditions": "Clostridioides difficile, ATCC43255", "procedure": "(§1) Agar Dilution Method: (1)\n(§2) This method was used for anaerobic organisms (Bacteroides, Clostridium, Bifidiobacteria, Prevotella, Fusobacterium, Peptococcus, Peptostreptococcus, Veillonella) and microaerophilic Lactobacillus spp, all of which were purchased form American Type Culture Collection (ATCC):\n(§3) 1. Two fold dilutions of compounds were made in Brucella agar supplemented with hemin, vitamin K and 5% laked sheep blood to achieve a final concentration range from 0.016 μg/mL to 16 μg/mL.\n(§4) 3. Plates were incubated in an anaerobic chamber at 35° C. for 48 hours. For the Lactobacillus strains, Mueller Hinton Agar and an incubation atmosphere of 5% CO2 were used.\n(§5) 4. The lowest concentration of an antibiotic showing no growth or marked reduction in growth was read as the MIC."}, "[3]": {"test_system": "Clostridium difficile, ATCC 700057", "experiment": "MIC, agar dilution method", "type": "cell-based", "conditions": "Clostridioides difficile, ATCC700057", "procedure": "as §1, §2, §3, §4, §5"}, "[4]": {"test_system": "Clostridium perfringens, ATCC 13124", "experiment": "microbe, parasite or virus in culture", "type": "cell-based", "conditions": "ATCC13124"}, "[5]": {"test_system": "Finegoldia (formerly Peptococcus) magna, ATCC 29328", "experiment": "MIC, agar dilution method", "type": "cell-based", "conditions": "Finegoldia magna ATCC 29328"}, "[6]": {"test_system": "Lactobacillus. casei, ATCC 393", "experiment": "MIC, agar dilution method", "type": "cell-based", "conditions": "Lacticaseibacillus casei, ATCC393"}, "[7]": {"test_system": "Lactobacillus acidophilus, ATCC 4356", "experiment": "MIC, agar dilution method", "type": "cell-based", "conditions": "ATCC4356"}, "[8]": {"test_system": "Lactobacillus rhamnosus, ATCC 7496", "experiment": "MIC, agar dilution method", "type": "cell-based"}, "[9]": {"test_system": "Micromonas (formerly Peptostreptococcus) micros, ATCC 33270", "experiment": "MIC, agar dilution method", "type": "cell-based", "conditions": "Parvimonas micra, ATCC33270; Micromonas micros ATCC 33270"}, "[10]": {"test_system": "Peptoniphilus (formerly Peptococcus) asaccharolyticus, ATCC 29743", "experiment": "MIC, agar dilution method", "type": "cell-based", "conditions": "Peptoniphilus asaccharolyticus ATCC 29743"}, "[11]": {"test_system": "Peptostreptococcus anaerobius, ATCC 27337", "experiment": "MIC, agar dilution method", "type": "cell-based", "conditions": "ATCC27337"}, "[12]": {"test_system": "ORG 150 B. fragilis 25285", "experiment": "MIC, anaerobic panel, agar dilution method", "type": "cell-based", "conditions": "Bacteroides fragilis, Table 3, read-out: MIC, panel of anaerobic bacteria"}, "[13]": {"test_system": "C. difficile ATCC strain 700057", "experiment": "Effect of fecal material on in vitro activity, microbroth dilution MIC", "type": "cell-based", "conditions": "for MIC: Clostridioides difficile"}, "[14]": {"conditions": "in vivo, po"}, "[15]": {"experiment": "physchem", "type": "physicochemical", "conditions": "water; read-out: Aqueous solubility"}, "[16]": {"test_system": "gram positive bacteria (C. difficile, C. perfringenes, B. longum, F. magna, P. asaccharolyticus, P. anaerobius, M. micros, L. casei)", "type": "cell-based"}, "[17]": {"test_system": "S. aureus", "experiment": "MIC profiling", "conditions": "Staphylococcus aureus"}, "[18]": {"test_system": "E. faecium", "experiment": "MIC profiling", "conditions": "Enterococcus faecium"}, "[19]": {"test_system": "Enterococcus faecium, ATCC 19434", "experiment": "MIC, microbroth dilution method"}, "[20]": {"test_system": "Enterococcus faecium, Vancomycin resistant clinical strain ORG#360", "experiment": "MIC, microbroth dilution method"}, "[21]": {"test_system": "Enterococcus faecium, Vancomycin resistant clinical strain ORG#364", "experiment": "MIC, microbroth dilution method"}, "[22]": {"test_system": "Enterococcus faecium, Vancomycin resistant clinical strain ORG#534", "experiment": "MIC, microbroth dilution method"}, "[23]": {"test_system": "Staphylococcus aureus, ATCC 29213", "experiment": "MIC, microbroth dilution method"}, "[24]": {"test_system": "Staphylococcus aureus, ATCC 33591 (Methicilin resistant)", "experiment": "MIC, microbroth dilution method"}, "[25]": {"test_system": "Staphylococcus aureus, Methicilin resistant clinical strain ORG#578", "experiment": "MIC, microbroth dilution method"}, "[26]": {"test_system": "Staphylococcus epidennidis, clinical strain ORG#365", "experiment": "MIC, microbroth dilution method"}, "[27]": {"test_system": "Streptococcus pneumoniae, ATCC 49619", "experiment": "MIC, microbroth dilution method", "conditions": "ATCC49619"}, "[28]": {"test_system": "Streptococcus pyogenes, ATCC 19615", "experiment": "MIC, microbroth dilution method"}, "[29]": {"test_system": "ORG 83 E. faecalis ATCC 29212", "experiment": "MIC, aerobic panel, microbroth dilution method", "conditions": "Enterococcus faecalis, ATCC29212, read-out: Aerobic Panel MIC"}, "[30]": {"test_system": "ORG 84 E. faecium ATCC 700221 VRE", "experiment": "MIC, aerobic panel, microbroth dilution method", "conditions": "Enterococcus faecium, read-out: Aerobic Panel MIC"}, "[31]": {"test_system": "ORG 99 S. epidermidis ATCC 12228", "experiment": "MIC, aerobic panel, microbroth dilution method", "conditions": "Staphylococcus epidermidis, ATCC12228, read-out: Aerobic Panel MIC"}},
  "note": "Read-outs that look alike come from different tables or passages of the source.",
  "data": [
    {"smiles": "CCc1c(Cl)c(O)c(Cl)c(O)c1C(=O)O[C@H]1[C@H](O)[C@H](OC)[C@H](OC/C2=C\\C=C\\C[C@H](O)/C(C)=C/[C@H](CC)[C@@H](O[C@@H]3OC(C)(C)[C@@H](O)[C@H](O)[C@@H]3O)/C(C)=C/C(C)=C/C[C@@H]([C@@H](C)O)OC2=O)O[C@@H]1C", "note": "[Formula II]", "values": [
      {"measurement": "MIC", "setting": "[1]", "result": 1, "unit": "µg/mL"},
      {"measurement": "MIC", "setting": "[2]", "result": 4, "unit": "µg/mL"},
      {"measurement": "MIC", "setting": "[3]; Clostridium difficile ATCC 700057, Table 1 gram positive GI flora, read-out: MIC", "result": 2, "unit": "µg/mL"},
      {"measurement": "MIC", "setting": "[3]; ORG 830 C. difficile ATCC 700057, Table 3, read-out: MIC, panel of anaerobic bacteria", "result": "0.5 to 1", "unit": "µg/mL"},
      {"measurement": "MIC", "setting": "[4]", "result": 1, "unit": "µg/mL"},
      {"measurement": "MIC", "setting": "[5]", "result": 8, "unit": "µg/mL"},
      {"measurement": "MIC", "setting": "[6]", "result": 8, "unit": "µg/mL"},
      {"measurement": "MIC", "setting": "[7]", "result": "> 16", "unit": "µg/mL"},
      {"measurement": "MIC", "setting": "[8]; Lacticaseibacillus rhamnosus, ATCC7496, L. rhamnosus, read-out: MIC", "result": "> 16", "unit": "µg/mL"},
      {"measurement": "MIC", "setting": "[8]; Lactobacillus rhamnosus ATCC 7496", "result": ">16", "unit": "µg/mL"},
      {"measurement": "MIC", "setting": "[9]", "result": 1, "unit": "µg/mL"},
      {"measurement": "MIC", "setting": "[10]", "result": 4, "unit": "µg/mL"},
      {"measurement": "MIC", "setting": "[11]", "result": 0.25, "unit": "µg/mL"},
      {"measurement": "MIC", "setting": "[12]", "result": "> 16", "unit": "µg/mL"},
      {"measurement": "Fold increase in MIC", "setting": "[13]; Brucella broth with feces vs Brucella broth only, C. difficile ATCC 700057", "result": 4, "unit": "x"},
      {"measurement": "activity against C. difficile compared with vancomycin", "setting": "[13]; C. difficile", "result": "as active as vancomycin"},
      {"measurement": "fold increase in MIC values in the presence of 5% fecal material", "setting": "[13]; C. difficile ATCC strain 700057", "result": "four fold"},
      {"measurement": "MIC", "setting": "[13]; ATCC700057, C. difficile ATCC strain 700057, read-out: MIC in the presence of 5% fecal material", "result": 4, "unit": "µg/mL"},
      {"measurement": "MIC", "setting": "[13]; ATCC700057, Diluent Brucella broth only, C. difficile ATCC 700057, read-out: MIC", "result": 1, "unit": "µg/mL"},
      {"measurement": "MIC", "setting": "[13]; ATCC700057, Diluent Brucella broth with feces (5% fecal slurry), C. difficile ATCC 700057, read-out: MIC", "result": 4, "unit": "µg/mL"},
      {"measurement": "levels detected in plasma", "setting": "[14]", "result": "most of which fell below the limit of quantification"},
      {"measurement": "solubility", "setting": "[15]", "result": "~300", "unit": "mg/mL"},
      {"measurement": "MIC values relative to those of OPT-80", "setting": "[16]", "result": "four to sixteen fold greater"},
      {"measurement": "MIC", "setting": "[17]", "result": "> 16", "unit": "µg/mL"},
      {"measurement": "MIC", "setting": "[18]", "result": "> 16", "unit": "µg/mL"},
      {"measurement": "MIC", "setting": "[19]; ATCC19434", "result": "> 64", "unit": "µg/mL"},
      {"measurement": "MIC", "setting": "[19]; ATCC19434, read-out: Aerobic Panel MIC", "result": "> 64", "unit": "µg/mL"},
      {"measurement": "MIC", "setting": "[20]", "result": "> 64", "unit": "µg/mL"},
      {"measurement": "MIC", "setting": "[21]", "result": 64, "unit": "µg/mL"},
      {"measurement": "MIC", "setting": "[22]", "result": "> 64", "unit": "µg/mL"},
      {"measurement": "MIC", "setting": "[23]; ATCC29213", "result": "> 64", "unit": "µg/mL"},
      {"measurement": "MIC", "setting": "[23]; ATCC29213 / MSSA, read-out: Aerobic Panel MIC", "result": "> 64", "unit": "µg/mL"},
      {"measurement": "MIC", "setting": "[24]; ATCC33591", "result": "> 64", "unit": "µg/mL"},
      {"measurement": "MIC", "setting": "[24]; ATCC33591 / MRSA, read-out: Aerobic Panel MIC", "result": "> 64", "unit": "µg/mL"},
      {"measurement": "MIC", "setting": "[25]", "result": "> 64", "unit": "µg/mL"},
      {"measurement": "MIC", "setting": "[26]", "result": 64, "unit": "µg/mL"},
      {"measurement": "MIC", "setting": "[27]", "result": "> 64", "unit": "µg/mL"},
      {"measurement": "MIC", "setting": "[28]; ATCC19615", "result": "> 64", "unit": "µg/mL"},
      {"measurement": "MIC", "setting": "[28]; ATCC19615, read-out: Aerobic Panel MIC", "result": "> 32", "unit": "µg/mL"},
      {"measurement": "MIC", "setting": "[29]", "result": "16 to 64", "unit": "µg/mL"},
      {"measurement": "MIC", "setting": "[30]", "result": "> 32", "unit": "µg/mL"},
      {"measurement": "MIC", "setting": "[31]", "result": "> 32", "unit": "µg/mL"}
    ]},
    {"smiles": "CN[C@H](CC(C)C)C(=O)N[C@H]1C(=O)N[C@@H](CC(N)=O)C(=O)N[C@H]2C(=O)N[C@H]3C(=O)N[C@H](C(=O)N[C@H](C(=O)O)c4cc(O)cc(O)c4-c4cc3ccc4O)[C@H](O)c3ccc(c(Cl)c3)Oc3cc2cc(c3O[C@@H]2O[C@H](CO)[C@@H](O)[C@H](O)[C@H]2O[C@H]2C[C@](C)(N)[C@H](O)[C@H](C)O2)Oc2ccc(cc2Cl)[C@H]1O", "note": "[Vancomycin, reference compound]", "values": [
      {"measurement": "Fold increase in MIC", "setting": "[13]", "result": 4, "unit": "x"},
      {"measurement": "fold increase in MIC values in the presence of 5% fecal material", "setting": "[13]", "result": "four fold"},
      {"measurement": "MIC", "setting": "[13]; ATCC700057, read-out: MIC in the presence of 5% fecal material", "result": 8, "unit": "µg/mL"}
    ]}
  ]
}
